Data on eleven compounds can be found in patent publication US20250163104A1, “MACROCYCLIC IMMUNOMODULATORS” (priority 2021, published 2025).

Read-outs that look alike come from different tables or passages of the source. Where a SMILES comes first, the peptide text is derived from it. Bridges are numbered along the chain shown (N, C = ends). [ ]: non-standard residue; d: D form. The star is where a group is joined. ξ: configuration not given here. Phe(4-COOH) = N[C@@H](Cc1ccc(C(=O)O)cc1)C(=O)O; Bip = N[C@@H](Cc1ccc(-c2ccccc2)cc1)C(=O)O; Phe(3-Me) = Cc1cccc(C[C@H](N)C(=O)O)c1; Ala(cPent) = N[C@@H](CC1CCCC1)C(=O)O; Phe(2-F) = N[C@@H](Cc1ccccc1F)C(=O)O; 4Pal = N[C@@H](Cc1ccncc1)C(=O)O; Cha = N[C@@H](CC1CCCCC1)C(=O)O; dCha = N[C@H](CC1CCCCC1)C(=O)O; Carboxymethyl = O=C(O)C*; Nle = CCCC[C@H](N)C(=O)O; Orn = NCCC[C@H](N)C(=O)O; Dab = NCC[C@H](N)C(=O)O; Dap = NC[C@H](N)C(=O)O; ξPra = C#CCC(N)C(=O)O; Propargyl = C#CC*

The experiment has as its target T1, human PD-1 / PD-L1-Ig binding on Jurkat cell line over-expressing human PD-1 (Jurkat-PD-1) (Homo sapiens, UniProt Q15116).
T1 construct: expressed in transfected cells; host or cells: Jurkat
The experiment in a line: Jurkat-PD-1 Cell Binding High-Content Screening Assay (CBA). The experiment is classed as cell-based. The note with it: PE-labeled PD-L1-Ig 20 nM final. The method in brief: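 Read-out: high-content imaging of PE-tagged PD-L1-Ig bound to Jurkat cells overexpressing human PD-1, after fixation with 4% paraformaldehyde and Hoechst 33342 nuclear staining. Ligand was used at 20 nM final for 1 hour, after a 2 h compound exposure at 37° C in serum-containing DMEM.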

Where [1] appears, read: Jurkat-PD-1 cells, read-out: Jurkat HPD1_PDL1 IC50.

T1 sequence (Q15116 25-288): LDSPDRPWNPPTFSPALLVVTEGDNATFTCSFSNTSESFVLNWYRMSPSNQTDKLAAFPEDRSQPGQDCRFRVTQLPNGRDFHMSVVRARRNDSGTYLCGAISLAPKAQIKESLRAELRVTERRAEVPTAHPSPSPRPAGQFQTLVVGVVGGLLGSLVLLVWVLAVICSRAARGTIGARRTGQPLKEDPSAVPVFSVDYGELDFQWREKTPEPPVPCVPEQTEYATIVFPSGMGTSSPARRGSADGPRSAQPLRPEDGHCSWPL

For the compound `CC(C)C[C@H]1NC(=O)[C@H](CCCN)NC(=O)[C@H](CCC(=O)O)NC(=O)[C@H](Cc2ccc(-c3ccccc3)cc2)NC(=O)[C@H](C(C)C)NC(=O)[C@H](Cc2ccccc2F)NC(=O)[C@H](CC(=O)O)NC(=O)[C@H](Cc2ccncc2)NC(=O)[C@H](CC(N)=O)NC(=O)CSC[C@@H](C(=O)N[C@@H](C)C(N)=O)NC(=O)[C@H]([C@@H](C)O)NC(=O)[C@H](C(C)C)NC(=O)[C@H](CC2CCCCC2)NC(=O)[C@H](CCN)NC1=O` [Compound 2207] ({CH2CO}-N[4Pal]D[Phe(2-F)]V[Bip]E[Orn][dL][Dab][Cha]VTCA-NH2; thioether N-14), under setting [1], the IC50 turned out to be 34.4 nM.

Regarding `Cc1cccc(C[C@@H]2NC(=O)[C@H](CC(N)=O)NC(=O)[C@H](Cc3ccc(C(=O)O)cc3)NC(=O)[C@H](CC(C)C)NC(=O)CSC[C@@H](C(=O)N[C@@H](CCN)C(N)=O)NC(=O)[C@H](CCC(=O)O)NC(=O)[C@H](C(C)C)NC(=O)[C@H](CC3CCCCC3)NC(=O)[C@H](CCN)NC(=O)[C@@H](CC(C)C)NC(=O)[C@H](CCCN)NC(=O)[C@H](Cc3ccc(C(=O)O)cc3)NC(=O)[C@H](Cc3ccc(-c4ccccc4)cc3)NC(=O)[C@H](Cc3ccc(C(=O)O)cc3)NC2=O)c1` [Example 2721] ({CH2CO}-L[Phe(4-COOH)]N[Phe(3-Me)][Phe(4-COOH)][Bip][Phe(4-COOH)][Orn][dL][Dab][Cha]VEC[Dab]-NH2; thioether N-14), the concentration for half-maximal inhibition (IC50) under setting [1] was found to be 190 nM. Still for that read-out and setting: then `CCCC[C@@H]1NC(=O)[C@H](CCN)NC(=O)[C@@H](CC(C)C)NC(=O)[C@H](CCCN)NC(=O)[C@H](C(C)C)NC(=O)[C@H](Cc2ccc(-c3ccccc3)cc2)NC(=O)[C@H](CC(C)C)NC(=O)[C@H](Cc2c[nH]c3ccccc23)NC(=O)[C@H](CC(=O)O)NC(=O)[C@H](Cc2ccncc2)NC(=O)[C@H](Cc2ccc(OCC(=O)O)cc2)NC(=O)CSC[C@@H](C(=O)NCC(N)=O)NC(=O)[C@H](CO)NC(=O)[C@H](C(C)C)NC1=O` [Compound 1411] ({CH2CO}-Y(Carboxymethyl)[4Pal]DWL[Bip]V[Orn][dL][Dab][Nle]VSCG-NH2; thioether N-14), with 9.5 nM. For the compound `C#CCC(NC(=O)[C@H](CCCNC(=N)N)NC(=O)[C@@H]1CSCC(=O)N[C@@H](Cc2ccncc2)C(=O)N[C@@H](Cc2ccc(OCC(=O)O)cc2)C(=O)N[C@@H](CC(=O)O)C(=O)N[C@@H](Cc2c[nH]c3ccccc23)C(=O)N[C@@H](C(C)C)C(=O)N[C@@H](Cc2ccc(-c3ccccc3)cc2)C(=O)N[C@@H]([C@@H](C)CC)C(=O)N[C@@H](CCCN)C(=O)N[C@H](CC(C)C)C(=O)N[C@@H](CCN)C(=O)N[C@@H](CC(C)C)C(=O)N[C@@H](C(C)C)C(=O)N[C@@H]([C@@H](C)O)C(=O)N1)C(N)=O` (stereo partly drawn) [Compound 1762] ({CH2CO}-[4Pal]Y(Carboxymethyl)DWV[Bip]I[Orn][dL][Dab]LVTCR[ξPra]-NH2; thioether N-14), the half-inhibitory concentration (IC50) under setting [1] came out at 20.5 nM.

`CC[C@H](C)[C@@H]1NC(=O)[C@H](Cc2ccc(-c3ccccc3)cc2)NC(=O)[C@H](C(C)C)NC(=O)[C@H](Cc2cccc(OC)c2)NC(=O)[C@H](CC(=O)O)NC(=O)[C@H](Cc2ccc(OCC(=O)O)cc2)NC(=O)[C@H](Cc2ccncc2)NC(=O)CSC[C@@H](C(=O)N[C@@H](C)C(N)=O)NC(=O)[C@H]([C@@H](C)O)NC(=O)[C@H](C(C)C)NC(=O)[C@H](CC(C)C)NC(=O)[C@H](CCN)NC(=O)[C@@H](CC(C)C)NC(=O)[C@H](CCCN)NC1=O` [Compound 1187] gave an IC50 (Jurkat HPD1_PDL1 IC50, Jurkat-PD-1 cells) of 10.7 nM. Consider `CCC(C)[C@@H]1NC(=O)[C@H](Cc2ccc(-c3ccccc3)cc2)NC(=O)[C@H](C(C)C)NC(=O)[C@H](Cc2cccc(C)c2C)NC(=O)[C@H](CC(=O)O)NC(=O)[C@H](Cc2ccc(OCC(=O)O)cc2)NC(=O)[C@H](CN)NC(=O)CSC[C@@H](C(=O)N[C@@H](C)C(N)=O)NC(=O)[C@H]([C@@H](C)O)NC(=O)[C@H](C(C)C)NC(=O)[C@H](CC2CCCCC2)NC(=O)[C@H](CCN)NC(=O)[C@@H](CC(C)C)NC(=O)[C@H](CCCN)NC1=O` (some centres unmarked) [Compound 2242], for which, under setting [1], the IC50 came out at 10.3 nM. Take `CC(C)C[C@@H]1NC(=O)[C@H](Cc2c[nH]c3ccccc23)NC(=O)[C@H](CC(=O)O)NC(=O)[C@H](Cc2ccncc2)NC(=O)[C@H](CN)NC(=O)CSC[C@@H](C(=O)NCC(N)=O)NC(=O)[C@H](CO)NC(=O)[C@H](C(C)C)NC(=O)[C@H](CC2CCCCC2)NC(=O)[C@H](CC(N)=O)NC(=O)[C@@H](CC(C)C)NC(=O)[C@H](CN)NC(=O)[C@H](C(C)C)NC(=O)[C@H](Cc2ccc(-c3ccccc3)cc2)NC1=O` [Compound 1395] ({CH2CO}-[Dap][4Pal]DWL[Bip]V[Dap][dL]N[Cha]VSCG-NH2; thioether N-14): the IC50 under setting [1] worked out at 10.1 nM. As to `CC[C@H](C)[C@@H]1NC(=O)[C@H](Cc2ccc(-c3ccccc3)cc2)NC(=O)[C@H](C(C)C)NC(=O)[C@H](Cc2cccc(C)c2)NC(=O)[C@H](CC(=O)O)NC(=O)[C@H](Cc2ccncc2)NC(=O)[C@H](CN)NC(=O)CSC[C@@H](C(N)=O)NC(=O)[C@H]([C@@H](C)O)NC(=O)[C@H](C(C)C)NC(=O)[C@H](CC(C)C)NC(=O)[C@H](CCN)NC(=O)[C@@H](CC(C)C)NC(=O)[C@H](CCCN)NC1=O` [Compound 1554] ({CH2CO}-[Dap][4Pal]D[Phe(3-Me)]V[Bip]I[Orn][dL][Dab]LVTC-NH2; thioether N-14), the IC50 under setting [1] worked out at 96.2 nM. On the same count and under the same terms, for `CC(C)[C@@H]1NC(=O)[C@H](Cc2c[nH]c3ccccc23)NC(=O)[C@H](CC(=O)O)NC(=O)[C@H](Cc2ccc(OCC(=O)O)cc2)NC(=O)[C@H](CN)NC(=O)CSC[C@@H](C(=O)N[C@@H](C)C(N)=O)NC(=O)[C@H]([C@@H](C)O)NC(=O)[C@H](C(C)C)NC(=O)[C@H](CC2CCCCC2)NC(=O)[C@H](CCN)NC(=O)[C@@H](CC2CCCCC2)NC(=O)[C@H](CCCN)NC(=O)[C@H](CCC(=O)O)NC(=O)[C@H](Cc2ccc(-c3ccccc3)cc2)NC1=O` [Compound 1443] ({CH2CO}-[Dap]Y(Carboxymethyl)DWV[Bip]E[Orn][dCha][Dab][Cha]VTCA-NH2; thioether N-14) the value was 11.8 nM. Same read-out and setting: then `C#CCOc1ccc(C[C@@H]2NC(=O)[C@H](Cc3ccc(-c4ccccc4)cc3)NC(=O)[C@H](Cc3ccc(OCC(=O)O)cc3)NC(=O)[C@H](Cc3cccc(C)c3)NC(=O)[C@H](CC(=O)O)NC(=O)[C@H](Cc3ccc(OCC(=O)O)cc3)NC(=O)[C@H](CCCC)NC(=O)CSC[C@@H](C(=O)N[C@@H](CCN)C(N)=O)NC(=O)[C@H](CCC(=O)O)NC(=O)[C@H](C(C)C)NC(=O)[C@H](CC3CCCCC3)NC(=O)[C@H](CCN)NC(=O)[C@@H](CC(C)C)NC(=O)[C@H](CCCN)NC2=O)cc1` [Compound 1838] ({CH2CO}-[Nle]Y(Carboxymethyl)D[Phe(3-Me)]Y(Carboxymethyl)[Bip]Y(Propargyl)[Orn][dL][Dab][Cha]VEC[Dab]-NH2; thioether N-14), with 7.6 nM; and `CC(C)C[C@H]1NC(=O)[C@H](CCCN)NC(=O)[C@H](CCC(=O)O)NC(=O)[C@H](Cc2ccc(-c3ccccc3)cc2)NC(=O)[C@H](CC2CCCC2)NC(=O)[C@H](Cc2c[nH]c3ccccc23)NC(=O)[C@H](CC(=O)O)NC(=O)[C@H](Cc2ccc(OCC(=O)O)cc2)NC(=O)[C@H](CN)NC(=O)CSC[C@@H](C(=O)N[C@@H](C)C(N)=O)NC(=O)[C@H]([C@@H](C)O)NC(=O)[C@H](C(C)C)NC(=O)[C@H](CC2CCCCC2)NC(=O)[C@H](CCN)NC1=O` [Compound 1715] ({CH2CO}-[Dap]Y(Carboxymethyl)DW[Ala(cPent)][Bip]E[Orn][dL][Dab][Cha]VTCA-NH2; thioether N-14), with 38.4 nM.
